Key:
[1] = test system: HEK 293 cells stably expressing human CD14 and TLR4/MD2; experiment: LPS membrane binding in HEK-CD14-TLR4/MD2 cells; type: cell-based; settings: 25 nM LPS, 1.5 h, 37° C.; 0.5 μM PAC; antibodies 500 nM in binding sites
Procedure: Human embryonic kidney cells (HEK 293) stably expressing human CD14 and TLR4/MD2 (HEK-CD14-TLR4/MD2; Invivogen) were grown in chambered wells and incubated with 25 nM LPS (E. coli serotype 055:B5, Sigma) in the absence or presence of 0.5 μM LH20 PAC (Dial>6K) for 1.5 h at 37° C. […] After incubation, the cells were washed with PBS (10 min) twice and either fixed (with 3.7% paraformaldehyde) to assess LPS membrane binding or fixed and permeabilized (with 0.1% Triton X-100) to determine LPS internalization. After blocking with 1% normal goat serum, membrane bound or internalized LPS was detected using a goat anti-LPS antibody (O/K serotype-specific, Abeam) conjugated to fluorescein. Nuclei were counterstained with DAPI. Imaging was performed using an Olympus IX-71 microscope. The relative amounts of membrane-associated or intracellular fluorescence were quantified by image analysis using Image J software (NIH, v. 1.37). Data is reported as the mean channel fluorescence from membrane-associated or internalized LPS and represents the analysis of 10 to 20 cells from each sample (minimum 10 measurements per each cell). Merged images were produced using Photoshop CS2 (ver. 9).

HEK-CD14-TLR4/MD2 cells = experiment: Cytotoxicity, cell proliferation assay (CellTiter96); type: cell-based, human; settings: 48 h culture
Procedure: Cellular toxicity was measured using a […] cell proliferation assay (CellTiter96™, Promega). HEK-CD14-TLR4/MD2 cells were seeded into the wells of a 96-well plate (1×10^4 cells/well) and cultured with a dose range of test compounds for 48 h prior to assay according to the manufacturer's instructions.

[2] = Pull-down of FITC-LPS by PAC beads after equilibration with lipid A; type: binding, E. coli; settings: lipid A concentrations as high as 100 μM
Procedure: Fluorescence-based pull down assays for lipopolysaccharide (LPS) were conducted in 50 mM TRIS at pH 8.0 using Sepharose-immobilized PACs and agarose-immobilized polymyxin B (Sigma-Aldrich, St. Louis, Mo.). Immobilized capture molecules and LPS were incubated at room temperature for 1 hour with constant agitation followed by rinsing and transfer to a 96-well plate. The fluorescence of the FITC-labeled LPS (from E. coli 055:B5; Sigma-Aldrich) was measured using a Tecan XSafire monochrometer-based micro plate reader at 495 nm excitation and 520 nm emission (5 nm bandwidths).
To further investigate this potential interaction, an assay for the presence of FITC-LPS using PAC-beads was conducted after equilibration of the PAC beads with varying concentrations of lipid A (FIG. 11). Assays were conducted with 3 μg/mL FITC-LPS (approx. 3 nM).

[3] = Stationary LPS-FITC binding assay on glass waveguide-immobilized PACs; set-up: species or system E. coli; settings: patterned from 10 mg/mL solutions; LPS-FITC incubated 1 hour
Text: To determine the ability of PAC materials to effectively bind bacteria and bacterial cell components upon immobilization to a solid support, PACs from cranberry and grape juices were covalently attached to the surface of a glass microscope slide (waveguide) using a modification of a common technique used for protein immobilization (Rowe et al., Anal. Chem., 71, 3846 (1999)). Catechin monomer and buffer only areas were also included as controls. Briefly, the waveguides, glass microscope slides (Daigger, Wheeling, Ill.), were cleaned by immersion in potassium hydroxide/methanol solution (Cras et al., Biosens. Bioelectron., 14, 683 (1999)) followed by rinsing and drying. The clean waveguides were then incubated with 2% (3-mercaptopropyl)triethoxysilane (Pierce Chemicals, Rockford, Ill.) in toluene for 45 minutes followed by rinsing and drying. The slides were immersed in 1.8 mM N-[p-maleimidophenyl]isocyanate (PMPI) in ethanol for 1 hour. The maleimide-group of PMPI reacts with the sulfhydryl-group provided by the silane reaction leaving the isocyanate-group free to react with the hydroxyl-groups of PACs. […]
The ability of the immobilized PACs to bind LPS was investigated using a stationary assay. […] Slides were imaged using evanescent wave fluorescence spectroscopy with excitation at 496 nm and emission collected above 515 nm. […]

Row | Substance | decrease in membrane-bound LPS [1] | concentrations at which toxicity was not elicited (HEK-CD14-TLR4/MD2 cells) | inhibition of FITC-LPS binding by immobilized PACs at high lipid A concentration [2] [%] | binding of LPS-FITC by substance immobilized on glass waveguide [3]
1 | diphosphoryl lipid A | did not significantly reduce LPS membrane binding | below 3 μM | ≤ 80 | 
2 | catechin |  |  |  | no binding even at the highest concentrations tested

Source: US8715949B2, “Applications of the binding interaction of proanthocyanidins with bacteria and bacterial components” (priority 2006, dated 2014)
